The values that follow come from patent US5344828A, “Piperazinealkanoic acid and a pharmaceutical composition comprising the same” (Hokuriku Pharmaceutical Co., Ltd., priority 1990, dated 1994).

Experiment [1] has as its target T1, contractile response induced by histamine in isolated guinea-pig ileum (Cavia porcellus, UniProt P31389).
T1 construct: An approximately 20 mm strip of isolated ileum was mounted vertically; from tissue; host or cells: isolated ileum strip, male Hartley guinea-pig
As to the kind of experiment: Antihistaminic activity (Effect on the contractile response induced by histamine in isolated guinea-pig ileum). Further details: species or system guinea-pig (male Hartley). To be noted: dissociation constant KB (M), method of Furchgott, 30 min contact with test compound, 28° C. As for the experimental part: 1. Antihistaminic activity (Effect on the contractile response induced by histamine in isolated guinea-pig ileum)
Male Hartley guinea-pigs, 5-8 weeks of age, were sacrificed and the ileum was excised. […] The contractile response was recorded on a recticorder an isotonic transducer. The concentration-contractile response curve to histamine was constructed before and after 30 min contact with test compounds.

Experiment [2] has as its system 48 hr homologous passive cutaneous anaphylaxis (PCA) in rat. The experiment can be described thus: Antiallergic activity (48 hr homologous passive cutaneous anaphylaxis (PCA) in rat). Type of experiment: in vivo, rat (male Wistar). As to conditions: oral, 1 hr before antigen challenge, vs control group, read-out: Inhibition rate (%) of PCA. As for the experimental part: 2. Antiallergic activity (48 hr homologous passive cutaneous anaphylaxis (PCA) in rat)
Male Wistar rats, 6 weeks of age, were passively sensitized by intracutaneous injection in the back of a volume of 0.1 ml of anti-DNP-As rat serum. Forty-eight hours later, the animals were administered an intravenous injection of 0.5 ml saline solution containing 1 mg of DNP-As and 5 mg of Evans blue. The animals were sacrificed 30 min after the injection and the extravasated dye was extracted with 1N KOH and acetone, neutralized with 1N H3 PO4 and the absorbance at 620 nm was determined. The test compounds were administered orally in a dose of 1 mg/Kg 1 hr before antigen challenge. The inhibitory activity of a test compound was expressed as percent inhibition of PCA as compared with the control group.

Each structure is given as a SMILES string.

T1 sequence (P31389 whole entry): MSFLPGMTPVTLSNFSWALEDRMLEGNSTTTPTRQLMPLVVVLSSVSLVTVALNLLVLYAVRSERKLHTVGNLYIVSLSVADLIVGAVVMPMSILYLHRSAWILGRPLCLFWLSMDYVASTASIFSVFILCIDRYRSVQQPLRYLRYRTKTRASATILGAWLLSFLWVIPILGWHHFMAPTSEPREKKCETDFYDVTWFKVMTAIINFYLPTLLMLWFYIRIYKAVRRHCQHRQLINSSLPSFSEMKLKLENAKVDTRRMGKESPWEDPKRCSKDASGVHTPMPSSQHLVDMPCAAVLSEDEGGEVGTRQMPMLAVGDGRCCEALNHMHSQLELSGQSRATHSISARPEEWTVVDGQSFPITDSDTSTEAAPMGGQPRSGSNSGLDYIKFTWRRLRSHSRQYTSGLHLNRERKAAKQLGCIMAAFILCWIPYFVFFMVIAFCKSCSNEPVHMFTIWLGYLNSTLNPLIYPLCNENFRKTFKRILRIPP

For `O=C(O)CCN1CCN(C2=Nc3ccccc3Cc3ccccc32)CC1` [Example 30, 4-(11H-Dibenz[b,e]azepin-6-yl)-1-piperazinepropionic acid], in experiment [1], the Kb is 5.75e-08 M.
On the same count and under the same terms, in the case of `CCOC(=O)CN1CCN2c3ccccc3Cc3ccccc3C2C1` (stereo not shown) [Example 36, Ethyl 2-(1,2,3,4,10,14b-Hexahydrodibenzo[c,f]pyrazino[1,2-a]azepin-2-yl)acetate] it was 3.24e-08 M; in that of `CCOC(=O)CCCCN1CCN(C2=Nc3ccccc3Oc3ccc(Cl)cc32)CC1` [Example 5, Ethyl 4-(2-Chlorodibenz[b,f][1,4]oxazepin-11-yl)-1-piperazinevalerate], 1.05e-08 M; in that of `CN1CCN(C2=Nc3ccccc3Sc3ccc(Cl)cc32)CC1` [Clothiapine, reference compound], 1.35e-09 M.
On the same count and under the same terms, in the case of `CN1CCN(C2=Nc3ccccc3Cc3ccccc32)CC1` [Perlapine, reference compound] it was 7.08e-10 M; in that of `CCOC(=O)CCCCN1CCN(C2=Nc3ccccc3Cc3ccccc32)CC1` [Example 27, Ethyl 4-(11H-Dibenz[b,e]azepin-6-yl)-1-piperazinevalerate], 7.94e-09 M; in that of `CCOC(=O)CCCN1CCN(C2=Nc3ccccc3Oc3ccc(Cl)cc32)CC1` [Example 4, Ethyl 4-(2-Chlorodibenz[b,f][1,4]oxazepin-11-yl)-1-piperazinebutyrate], 4.9e-09 M.
Molecule `O=C(O)CCCCN1CCN(C2=Nc3ccccc3Oc3ccc(Cl)cc32)CC1` [Example 10, 4-(2-Chlorodibenz[b,f][1,4]oxazepin-11-yl)-1-piperazinevaleric acid] showed a Kb in experiment [1] of 5.5e-08 M. The inhibition at 1 mg/kg in experiment [2] was determined as 84.1%.
Molecule `O=C(O)CCCCCN1CCN(C2=Nc3ccccc3Cc3ccccc32)CC1` [Example 33, 4-(11H-Dibenz[b,e]azepin-6-yl)-1-piperazinecaproic acid] gave a Kb in experiment [1] of 2.69e-08 M.
In the case of `Clc1ccc2c(c1)C(N1CCNCC1)=Nc1ccccc1O2` [Amoxapine, reference compound], the inhibition at 1 mg/kg in experiment [2] was determined as 50.9%.
In the case of `O=C(O)CCCN1CCN(C2=Nc3ccccc3Oc3ccc(Cl)cc32)CC1` [Example 9, 4-(2-Chlorodibenz[b,f][1,4]oxazepin-11-yl)-1-piperazinebutyric acid], the Kb in experiment [1] was 4.79e-08 M. Also, the inhibition at 1 mg/kg in experiment [2] came out at 95.8%.
Take `O=C(O)CCCCN1CCN(C2=Nc3ccccc3Sc3ccc(Cl)cc32)CC1` [Example 21, 4-(2-Chlorodibenzo [b,f][1,4]thiazepin-11-yl)-1-piperazinevaleric acid]: the Kb in experiment [1] is 5.89e-08 M. In addition, in experiment [2], the inhibition at 1 mg/kg was 78.5%.
`CCOC(=O)CCCN1CCN(C2=Nc3ccccc3Cc3ccccc32)CC1` [Example 26, Ethyl 4-(11H-Dibenz[b,e]azepin-6-yl)-1-piperazinebutyrate] showed a Kb in experiment [1] of 1.35e-08 M.
On the same count and under the same terms, under `CCOC(=O)CCCCN1CCN(C2=Nc3ccccc3Sc3ccc(Cl)cc32)CC1` [Example 16, Ethyl 4-(2-Chlorodibenzo[b,f][1,4]thiazepin-11-yl)-1-piperazinevalerate] stands 4.68e-08 M.
Consider `O=C(O)CCCCCN1CCN(C2=Nc3ccccc3Oc3ccc(Cl)cc32)CC1` [Example 11], for which the inhibition at 1 mg/kg in experiment [2] is 86.4%.
Consider `O=C(O)CCN1CCN(C2=Nc3ccccc3Oc3ccc(Cl)cc32)CC1` [Example 8, 4-(2-Chlorodibenz[b,f][1,4]oxazepin-11-yl)-1-piperazinepropionic acid], for which, in experiment [1], the Kb was 5.01e-08 M. Moreover, the inhibition at 1 mg/kg in experiment [2] stood at 88.6%.
As to `CCOC(=O)CCN1CCN(C2=Nc3ccccc3Sc3ccc(Cl)cc32)CC1` [Example 13, Ethyl 4-(2-Chlorodibenzo[b,f][1,4]thiazepin-11-yl)-1-piperazinepropionate], the Kb in experiment [1] is 5.13e-08 M.
The molecule `CCOC(=O)CN1CCN(C2=Nc3ccccc3Cc3ccccc32)CC1` [Example 25, Ethyl 4-(11H-Dibenz[b,e]azepin-6-yl)-1-piperazineacetate] showed a Kb in experiment [1] of 4.57e-08 M.
On the same count and under the same terms, under `CCOC(=O)CCCCCN1CCN(C2=Nc3ccccc3Sc3ccc(Cl)cc32)CC1` [Example 17, Ethyl 4-(2-Chlorodibenzo[b,f][1,4]thiazepin-11-yl)-1piperazinecaproate] stands 5.5e-08 M; under `CCOC(=O)CCN1CCN(C2=Nc3ccccc3Oc3ccc(Cl)cc32)CC1` [Example 2, Ethyl 4-(2-Chlorodibenz[b,f][1,4]oxazepin-11-yl)-1-piperazinepropionate], 1.2e-08 M.
Still for that read-out and setting: in the case of `CCOC(=O)CCCCCN1CCN(C2=Nc3ccccc3Cc3ccccc32)CC1` [Example 28, Ethyl 4-(11H-Dibenz[b,e]azepin-6-yl)-1-piperazinecaproate] it was 1.74e-08 M; in that of `CCOC(=O)CCCCN1CCN2c3ccccc3Cc3ccccc3C2C1` (stereo not shown) [Example 38, Ethyl 5-(1,2,3,4,10,14b-Hexahydrodibenzo[c,f]pyrazino[1,2-a]azepin-2-yl)valerate], 1.1e-08 M; in that of `O=C(O)CCCCN1CCN(C2=Nc3ccccc3Cc3ccccc32)CC1` [Example 32, 4-(11H-Dibenz[b,e]azepin-6-yl)-1-piperazinevaleric acid], 5.75e-08 M.
In experiment [1], `O=C(O)CCCN1CCN(C2=Nc3ccccc3Sc3ccc(Cl)cc32)CC1` [Example 20, 4-(2-Chlorodibenzo[b,f][1,4]thiazepin-11-yl)-1-piperazinebutyric acid] showed a Kb of 5.75e-08 M. In addition, the inhibition at 1 mg/kg in experiment [2] stood at 77.7%.
Consider `CN1CCN2c3ccccc3Cc3ccccc3C2C1` (stereo not shown) [Mianserin, reference compound], for which, in experiment [2], the inhibition at 1 mg/kg came to 61.4%.
Molecule `O=C(O)CCCN1CCN2c3ccccc3Cc3ccccc3C2C1` (stereo not shown) [Example 42, 4-(1,2,3,4,10,14b-Hexahydrodibenzo[c,f]pyrazino[1,2-a]azepin-2-yl)butyric acid] showed a Kb in experiment [1] of 3.09e-08 M. Also, in experiment [2], the inhibition at 1 mg/kg came to 65.6%.
The molecule `CCOC(=O)CCCCCN1CCN2c3ccccc3Cc3ccccc3C2C1` (stereo not shown) [Example 39, Ethyl 6-(1,2,3,4,10,14b-Hexahydrodibenzo[c,f]Pyrazino[1,2-a]azepin-2-yl)caproate] showed a Kb in experiment [1] of 1.29e-08 M.
For `O=C(O)CCN1CCN(C2=Nc3ccccc3Sc3ccc(Cl)cc32)CC1` [Example 19, 4-(2-Chlorodibenzo[b,f][1,4]thiazepin-11-yl)-1-piperazinepropionic acid], in experiment [1], the Kb was 5.25e-08 M. Also, in experiment [2], the inhibition at 1 mg/kg is 64.6%.
In turn, `CCOC(=O)CCCN1CCN2c3ccccc3Cc3ccccc3C2C1` (stereo not shown) [Example 37, Ethyl 4-(1,2,3,4,10,14b-Hexahydrodibenzo[c,f]pyrazino[1,2-a]azepin-2-yl)butyrate] had a Kb in experiment [1] of 2.4e-09 M.
Still for that read-out and setting: under `CCOC(=O)CCCN1CCN(C2=Nc3ccccc3Sc3ccc(Cl)cc32)CC1` [Example 15, Ethyl 4-(2-Chlorodibenzo [b,f][1,4]thiazepin-11-yl)-1-piperazinebutyrate] stands 3.02e-08 M; under `CCOC(=O)CCN1CCN2c3ccccc3Cc3ccccc3C2C1` (stereo not shown) [Example 35, Ethyl 3-(1,2,3,4,10,14b-Hexahydrodibenzo[c,f]pyrazino[1,2-a]azepin-2-yl)propionate], 2.69e-09 M.
Same read-out and setting: under `O=C(O)CN1CCN2c3ccccc3Cc3ccccc3C2C1` (stereo not shown) [Example 40, 2-(1,2,3,4,10,14b-Hexahydrodibenzo[c,f]pyrazino[1,2-a]azepin-2-yl)acetic acid] stands 1.82e-08 M.
Take `O=C(O)CCN1CCN2c3ccccc3Cc3ccccc3C2C1` (stereo not shown) [Example 41, 3-(1,2,3,4,10,14b-Hexahydrodibenzo[c,f]pyrazino[1,2-a]azepin-2-yl)propionicacid]: the Kb in experiment [1] was 2.51e-08 M. The inhibition at 1 mg/kg in experiment [2] came out at 76.5%.
As to `CCOC(=O)CCCCCN1CCN(C2=Nc3ccccc3Oc3ccc(Cl)cc32)CC1` [Example 6], the Kb in experiment [1] is 3.09e-09 M.
As to `O=C(O)CCCCCN1CCN2c3ccccc3Cc3ccccc3C2C1` (stereo not shown) [Example 44, 6-(1,2,3,4,10,14b-Hexahydrodibenzo[c,f]pyrazino[1,2-a]azepin-2-yl)caproic acid], the Kb in experiment [1] was 3.24e-08 M. Moreover, the inhibition at 1 mg/kg in experiment [2] was found to be 71.8%.
On the same counts, the results for `O=C(O)CCCCN1CCN2c3ccccc3Cc3ccccc3C2C1` (stereo not shown) [Example 43, 5-(1,2,3,4,10,14b-Hexahydrodibenzo[c,f]pyrazino[1,2-a]azepin-2-yl)valeric acid] are 4.79e-08 M and 73.9%.
In the case of `CCOC(=O)CCN1CCN(C2=Nc3ccccc3Cc3ccccc32)CC1` [Example 24, Ethyl 4-(11H-Dibenz[b,e]azepin-6-yl)-1-piperazinepropionate], the Kb in experiment [1] was 8.91e-09 M.
In experiment [1], `O=C(O)CCCCCN1CCN(C2=Nc3ccccc3Sc3ccc(Cl)cc32)CC1` [Example 22, 4-(2-Chlorodibenzo[b,f][1,4]thiazepin-11-yl)-1-piperazinecaproic acid] had a Kb of 3.47e-08 M. Further, the inhibition at 1 mg/kg in experiment [2] stood at 77.2%.

One may read the inhibition as the share of the control response that was lost under treatment.
